Laboratory results from ChEMBL document CHEMBL1141792, “Swartziarboreol diterpenes from Swartzia langsdorffii Raddi” (J Nat Prod, 2005).
The source made the active and inactive calls. The calls are words filed in the database; no cut-off is given here.

Tested on: Staphylococcus aureus
Experiment: Antibacterial activity against Staphylococcus aureus CCT 4295
Type: functional, organism-based

COc1c(O)c2c(c3c1CCOC3=O)CC[C@H]1C(C)(C)CCC[C@]21C
Activity: Active
